# System: serum growth hormone (GH)
# Experiment: Phase 1 study Part 2: PD, serum GH concentration fasted vs fed
# Format: in vivo, human
# Settings: for serum GH concentration, mean (SD): pre-dose
# Source text: • Part 1: To evaluate PD (GH response) of the new LUM-201 formulation as capsule (test). • Part 2: To measure PD (GH response) to LUM-201 administered as capsule (test) in fasted versus fed state. PD Results (pt 2): Following the administration of LUM-201, the serum GH concentration values increased post dose. At pre-dose, mean (SD) serum GH concentration values were 0.2121 (0.2192) ng/mL in Treatment A and 0.1088 (0.09518) ng/mL in Treatment B. The serum GH concentration value peaked at 22.18 (22.24) ng/mL in Treatment A at 1 h post-dose and 14.10 (13.48) ng/mL in Treatment B at 1.5 h post-dose. The serum GH concentration values in Treatment A were consistently higher compared to Treatment B over time and approached the peak concentration sooner at 1 h post-dose.
smiles,measurement,setting,value
"CC(C)(N)C(=O)N[C@H](COCc1ccccc1)C(=O)N1CCC2(CC1)CN(S(C)(=O)=O)c1ccccc12 [LUM-201, N-[1(R)-[(1,2-dihydro-1-methanesulfonylspiro[3H-indole-3,4′-piperdin]-yl)carbonyl]-2-(phenylmethyloxy)ethyl]-2-amino-2-methylpropanamide methanesulfonate]","serum GH concentration, peak, mean (SD)","1 h post-dose, Part 2, Treatment A: 85.3 mg capsule, fasted",22.18 (22.24) ng/mL
same,"serum GH concentration, peak, mean (SD)","1.5 h post-dose, Part 2, Treatment B: 85.3 mg capsule after high-fat meal",14.10 (13.48) ng/mL
same,"serum GH concentrations 1.5 hours after administration, fasted vs fed","Part 2, Treatment A (fasted state) and Treatment B (fed state)",comparable
same,"serum GH concentration, mean (SD)","Part 2, Treatment A: 85.3 mg capsule, fasted",0.2121 (0.2192) ng/mL
same,"serum GH concentration, mean (SD)","Part 2, Treatment B: 85.3 mg capsule after high-fat meal",0.1088 (0.09518) ng/mL
